Reference: ChEMBL document CHEMBL1141309, “Isoechinulin-type alkaloids, variecolorins A-L, from halotolerant Aspergillus variecolor” (J Nat Prod, 2007)

Experiments:
[1] = DPPH radical scavenging activity; format: functional
Bel-7402 = test: Cytotoxicity against human BEL-7402 cells after 24 hrs by SRB assay; format: functional, cell-based; details: Bel-7402, 24 h
P388 = test: Cytotoxicity against mouse P388 cells after 72 hrs by MTT assay; format: functional, cell-based; details: P388, 72 h
[2] = Cytotoxicity against human […] cells after 24 hrs by SRB assay; format: functional, cell-based
HL-60 = test: Cytotoxicity against human HL60 cells after 72 hrs by MTT assay; format: functional, cell-based; details: HL-60, 72 h

Row | SMILES | IC50 [1] [µM] | IC50 (Bel-7402) [µM] | IC50 (P388) [µM] | IC50 [2] [µM] | IC50 (HL-60) [µM]
1 | O=C1O[C@H]([C@@H](O)CO)C(O)=C1O [ASCORBIC ACID] | 22 |  |  |  | 
2 | C=CC(C)(C)c1[nH]c2c(CC=C(C)C)cc(CC=C(C)C)cc2c1C[C@@H]1NC(=O)[C@H](C)NC1=O [ECHINULIN] | 569 |  |  |  | 
3 | C=CC(C)(C)c1[nH]c2ccc(CC=C(C)C)cc2c1/C=C1\NC(=O)[C@H](C)NC1=O [ISOECHINULIN A] | 98 |  |  |  | 
4 | C=CC(C)(C)c1[nH]c2ccccc2c1/C=c1\[nH]c(=O)c(=C)[nH]c1=O [NEOECHINULIN B] | 65 |  |  |  | 
5 | CC(=O)O[C@H]1C(=O)[C@@]2(C)[C@H]([C@H](OC(=O)c3ccccc3)[C@]3(O)C[C@H](OC(=O)[C@H](O)[C@@H](NC(=O)c4ccccc4)c4ccccc4)C(C)=C1C3(C)C)[C@]1(OC(C)=O)CO[C@@H]1C[C@@H]2O [PACLITAXEL] |  | 0.93 | 0.93 | 0.93 | 0.93
6 | C=CC(C)(C)c1[nH]c2ccccc2c1C[C@@H]1NC(=O)[C@H](C)NC1=O [PREECHINULIN] | 1000 |  |  |  | 
7 | C=CC(C)(C)c1[nH]c2ccc(CC=C(C)C)cc2c1C[C@@H]1NC(=O)[C@H](C)NC1=O [TARDIOXOPIPERAZINE A] | 912 |  |  |  | 
8 | C=CC(C)(C)c1[nH]c2c(CC=C(C)C)cccc2c1C[C@@H]1NC(=O)[C@H](C)NC1=O [TARDIOXOPIPERAZINE B] | 899 |  |  |  | 
9 | C=CC(C)(C)c1[nH]c2ccc(C[C@@H](O)C(C)(C)Cl)cc2c1/C=C1\NC(=O)[C@H](C)NC1=O [VARIECOLORIN A] | 79 | > 50 | > 50 | > 50 | > 50
10 | C=CC(C)(C)c1[nH]c2ccc(C[C@@H](Cl)C(C)(C)O)cc2c1/C=C1\NC(=O)[C@H](C)NC1=O [VARIECOLORIN B] | 97 | > 50 | > 50 | > 50 | > 50
11 | C=CC(C)(C)c1[nH]c2ccc(C[C@@H](O)C(=C)C)cc2c1/C=C1\NC(=O)[C@H](C)NC1=O [VARIECOLORIN C] | 75 | > 50 | > 50 | > 50 | > 50
12 | C=CC(C)(C)c1[nH]c2ccc(C[C@H]3OC(C)(C)OC3(C)C)cc2c1/C=C1\NC(=O)[C@H](C)NC1=O [VARIECOLORIN D] | 88 | > 50 | > 50 | > 50 | > 50
13 | C=CC(C)(C)c1[nH]c2ccc(CC(=O)C(C)C)cc2c1/C=C1\NC(=O)[C@H](C)NC1=O [VARIECOLORIN E] | 79 | > 50 | > 50 | > 50 | > 50
14 | C=CC(C)(C)c1[nH]c2c(C[C@@H](O)C(C)(C)Cl)cccc2c1/C=C1\NC(=O)[C@H](C)NC1=O [VARIECOLORIN F] | 77 | > 50 | > 50 | > 50 | > 50
15 | C=CC(C)(C)c1[nH]c2c(CC=C(C)C)cccc2c1/C=C1\NC(=O)[C@H](C)NC1=O [VARIECOLORIN G] | 86 | > 50 | > 50 | > 50 | > 50
16 | C=CC(C)(C)c1[nH]c2ccccc2c1/C=C1\NC(=O)C(C)(OC)NC1=O (stereo unspecified) [VARIECOLORIN H] | 99 | > 50 | > 50 | > 50 | > 50
17 | C=CC(C)(C)c1[nH]c2ccc(CC=C(C)C)cc2c1/C=C1\NC(=O)C(C)(OC)NC1=O (stereo unspecified) [VARIECOLORIN I] | 79 | > 50 | > 50 | > 50 | > 50
18 | C=CC(C)(C)c1[nH]c2ccc(CC=C(C)C)cc2c1/C=C1\NC(=O)C(=O)NC1=O [VARIECOLORIN J] | 102 | > 50 | > 50 | > 50 | > 50
19 | C=CC(C)(C)c1[nH]c2cc3c(cc2c1/C=C1\NC(=O)[C@H](C)NC1=O)C[C@H](C(C)(C)O)OC3(C)C [VARIECOLORIN K] | 89 | > 50 | > 50 | > 50 | > 50
20 | C=CC(C)(C)c1[nH]c2ccc(CC=C(C)C)c(CC=C(C)C)c2c1C[C@@H]1NC(=O)[C@H](C)NC1=O [VARIECOLORIN L] | 623 | > 50 | > 50 | > 50 | > 50
